Test results as given in ChEMBL document CHEMBL1130027, “Improved P1/P1' substituents for cyclic urea based HIV-1 protease inhibitors: synthesis, structure-activity relationship, and X-ray crystal structure analysis” (J Med Chem, 1997).

Experiments:
MT2 = assay: Cellular antiviral activity (IC90) assessed on human MT-2 cells infected with HIV-RF; type: functional
[1] = biological target: Human immunodeficiency virus type 1 protease (Human immunodeficiency virus 1, UniProt Q72874); assay: Compound was tested for binding affinity against HIV-1 Protease
[2] = In vivo evaluation of maximum plasma concentration at a dose of 10 mg/kg; type: ADME, organism-based; parameters: dose 10 mg/kg
[3] = The half life in dog; type: ADME, organism-based, Canis lupus familiaris; conditions: in vivo
[4] = Oral bioavailability in dog; type: ADME, organism-based, Canis lupus familiaris; conditions: in vivo

Structure (SMILES) | IC90 (MT2) | Ki [1] | Cmax [2] | half-life [3] | bioavailability [4]
O=C1N(Cc2ccccc2)[C@H](Cc2ccc3ccccc3c2)[C@H](O)[C@@H](O)[C@@H](Cc2ccc3ccccc3c2)N1Cc1ccccc1 | 3200 nM | – | – | – | –
CC(=O)c1cccc(CN2C(=O)N(Cc3cccc(C(C)=O)c3)[C@H](Cc3ccc4c(c3)N(C)CCO4)[C@H](O)[C@@H](O)[C@H]2Cc2ccc3c(c2)N(C)CCO3)c1 | 16.4 nM | 0.08 nM | – | – | –
O=C1N(Cc2ccc3ccccc3c2)[C@H](Cc2ccc3c(c2)OCCO3)[C@H](O)[C@@H](O)[C@@H](Cc2ccc3c(c2)OCCO3)N1Cc1ccc2ccccc2c1 | 98 nM | 0.04 nM | – | – | –
CNc1cccc(CN2C(=O)N(Cc3cccc(NC)c3)[C@H](Cc3ccc4c(c3)OCCO4)[C@H](O)[C@@H](O)[C@H]2Cc2ccc3c(c2)OCCO3)c1 | 8.7 nM | 0.14 nM | 220 ng/mL | 48 min | 4.6%
O=C1N(Cc2ccc(CO)cc2)[C@H](Cc2ccc3c(c2)OCCO3)[C@H](O)[C@@H](O)[C@@H](Cc2ccc3c(c2)OCCO3)N1Cc1ccc(CO)cc1 | 83 nM | 0.05 nM | – | – | –
CNc1cccc(CN2C(=O)N(Cc3cccc(NC)c3)[C@H](Cc3ccc4c(c3)CCO4)[C@H](O)[C@@H](O)[C@H]2Cc2ccc3c(c2)CCO3)c1 | 61.6 nM | 0.2 nM | – | – | –
COc1cc(C[C@@H]2[C@H](O)[C@@H](O)[C@@H](Cc3cc(OC)cc(OC)c3)N(Cc3ccccc3)C(=O)N2Cc2ccccc2)cc(OC)c1 | > 5000 nM | 8 nM | – | – | –
COc1ccc(C[C@@H]2[C@H](O)[C@@H](O)[C@@H](Cc3ccc(OC)c(OC)c3)N(Cc3ccccc3)C(=O)N2Cc2ccccc2)cc1OC | 640 nM | 6.4 nM | – | – | –
Nc1cccc(CN2C(=O)N(Cc3cccc(N)c3)[C@H](Cc3ccc4c(c3)OCCO4)[C@H](O)[C@@H](O)[C@H]2Cc2ccc3c(c2)OCCO3)c1 | 40 nM | 0.04 nM | – | – | –
O=C1N(Cc2ccc(O)cc2)[C@H](Cc2ccc3c(c2)OCCO3)[C@H](O)[C@@H](O)[C@@H](Cc2ccc3c(c2)OCCO3)N1Cc1ccc(O)cc1 | 107 nM | 0.03 nM | – | – | –
O=C1N(Cc2ccccc2)[C@H](Cc2ccccc2)[C@H](O)[C@@H](O)[C@@H](Cc2ccccc2)N1Cc1ccccc1 | 790 nM | – | – | – | –
CC(=O)c1cccc(CN2C(=O)N(Cc3cccc(C(C)=O)c3)[C@H](Cc3ccc4c(c3)OCCO4)[C@H](O)[C@@H](O)[C@H]2Cc2ccc3c(c2)OCCO3)c1 | 4.2 nM | 0.04 nM | – | – | –
CC(=O)c1cc(CN2C(=O)N(Cc3ccc(F)c(C(C)=O)c3)[C@H](Cc3ccc4c(c3)OCO4)[C@H](O)[C@@H](O)[C@H]2Cc2ccc3c(c2)OCO3)ccc1F | 265 nM | 1.5 nM | – | – | –
CC(=O)c1cccc(CN2C(=O)N(Cc3cccc(C(C)=O)c3)[C@H](Cc3ccc4c(c3)CCO4)[C@H](O)[C@@H](O)[C@H]2Cc2ccc3c(c2)CCO3)c1 | 10 nM | 0.048 nM | – | – | –
CN1CCOc2ccc(C[C@@H]3[C@H](O)[C@@H](O)[C@@H](Cc4ccc5c(c4)N(C)CCO5)N(Cc4ccccc4)C(=O)N3Cc3ccccc3)cc21 | 218 nM | 0.7 nM | – | – | –
CC(=O)c1cccc(CN2C(=O)N(Cc3cccc(C(C)=O)c3)[C@H](Cc3ccc4c(c3)OCO4)[C@H](O)[C@@H](O)[C@H]2Cc2ccc3c(c2)OCO3)c1 | 14.7 nM | 0.043 nM | – | – | –
CC(=O)c1cc(CN2C(=O)N(Cc3ccc(F)c(C(C)=O)c3)[C@H](Cc3ccc4c(c3)OCCO4)[C@H](O)[C@@H](O)[C@H]2Cc2ccc3c(c2)OCCO3)ccc1F | 84 nM | 0.64 nM | – | – | –
COc1cc(C[C@@H]2[C@H](O)[C@@H](O)[C@@H](Cc3cc(OC)cc(OC)c3)N(Cc3cccc(C(C)=O)c3)C(=O)N2Cc2cccc(C(C)=O)c2)cc(OC)c1 | 46.4 nM | 0.4 nM | – | – | –
CNc1cccc(CN2C(=O)N(Cc3cccc(N)c3)[C@H](Cc3ccc4c(c3)OCCO4)[C@H](O)[C@@H](O)[C@H]2Cc2ccc3c(c2)OCCO3)c1 | 27 nM | 0.11 nM | – | – | –
O=C1N(Cc2ccccc2)[C@H](Cc2ccc3c(c2)CCO3)[C@H](O)[C@@H](O)[C@@H](Cc2ccc3c(c2)CCO3)N1Cc1ccccc1 | 305 nM | – | – | – | –
O=C1N(CC2CC2)[C@H](Cc2ccc3c(c2)OCCO3)[C@H](O)[C@@H](O)[C@@H](Cc2ccc3c(c2)OCCO3)N1CC1CC1 | 928 nM | 0.27 nM | – | – | –
O=C1N(Cc2ccccc2)[C@H](Cc2ccc3c(c2)OCCO3)[C@H](O)[C@@H](O)[C@@H](Cc2ccc3c(c2)OCCO3)N1Cc1ccccc1 | 112 nM | 0.44 nM | – | – | –
O=C1N(Cc2ccccc2)[C@H](Cc2ccc3c(c2)OCO3)[C@H](O)[C@@H](O)[C@@H](Cc2ccc3c(c2)OCO3)N1Cc1ccccc1 | 504 nM | 1 nM | – | – | –
Nc1cccc(CN2C(=O)N(Cc3cccc(N)c3)[C@H](Cc3ccc4c(c3)CCO4)[C@H](O)[C@@H](O)[C@H]2Cc2ccc3c(c2)CCO3)c1 | 30.6 nM | 0.11 nM | – | – | –
